Measurements published in US5677470A, “Baccatin derivatives and processes for preparing the same” (Tanabe Seiyaku Co., Ltd., priority 1994, dated 1997).
In brackets after ≈: the same amount, converted by molar mass.

Tests used:
[1] = solubility in physiological saline; type: physicochemical
Description: Solubility: 5 mg/ml (physiological saline)
In the tables, solubility means a solubility in physiological saline.

BDF1 mice = assay: toxicity, intraperitoneal administration to BDF1 mice, 20 days observation; type: in vivo, mouse; settings: 25 mg/kg, 4 times once a day, observed for 20 days
From the text: Further, the taxol derivative of the present invention or a pharmaceutically acceptable salt thereof has low toxicity and high water solubility.

[2] = test system: ovary cancer and cancers of thymus and others; settings: cited from earlier work
various kinds of cancers = settings: cited from earlier work
[3] = cited from earlier work
[4] = methanesulfonate, medium not printed at the place

Row | Compound | solubility ([1]; physiological saline) [µg/mL] | also measured
1 | CCOC(=O)[C@@H](N)CC(=O)OCC(=O)O[C@@H](C(=O)O[C@H]1C[C@@]2(O)[C@@H](OC(=O)c3ccccc3)[C@@H]3[C@]4(OC(C)=O)CO[C@@H]4C[C@H](O)[C@@]3(C)C(=O)[C@H](O)C(=C1C)C2(C)C)[C@@H](NC(=O)CCCCCl)c1ccccc1 [Example 42] | 5000 (≈ 4870 µM) | –
2 | CC(=O)O[C@@]12CO[C@@H]1C[C@H](O)[C@@]1(C)C(=O)[C@H](O)C3=C(C)[C@@H](OC(=O)[C@H](OC(=O)COC(=O)[C@@H]4CCCN4)[C@@H](NC(=O)OC(C)(C)C)c4ccccc4)C[C@@](O)([C@@H](OC(=O)c4ccccc4)[C@H]21)C3(C)C [Example 33] | 1400 (≈ 1450 µM) | –
3 | CCOC(=O)[C@@H](N)CC(=O)OCC(=O)O[C@@H](C(=O)O[C@H]1C[C@@]2(O)[C@@H](OC(=O)c3ccccc3)[C@@H]3[C@]4(OC(C)=O)CO[C@@H]4C[C@H](O)[C@@]3(C)C(=O)[C@H](O)C(=C1C)C2(C)C)[C@@H](NC(=O)OCC1CC1)c1ccccc1 [Example 49] | 5000 (≈ 4960 µM) | –
4 | CCOC(=O)N[C@@H](c1ccccc1)[C@@H](OC(=O)COC(=O)C[C@H](N)C(=O)OCC)C(=O)O[C@H]1C[C@@]2(O)[C@@H](OC(=O)c3ccccc3)[C@@H]3[C@]4(OC(C)=O)CO[C@@H]4C[C@H](O)[C@@]3(C)C(=O)[C@H](O)C(=C1C)C2(C)C [Example 44] | 4000 (≈ 4080 µM) | –
5 | COCCOC(=O)[C@@H](N)CC(=O)OCC(=O)O[C@@H](C(=O)O[C@H]1C[C@@]2(O)[C@@H](OC(=O)c3ccccc3)[C@@H]3[C@]4(OC(C)=O)CO[C@@H]4C[C@H](O)[C@@]3(C)C(=O)[C@H](O)C(=C1C)C2(C)C)[C@@H](NC(=O)OC(C)(C)C)c1ccc(F)cc1F [Example 57] | 5000 (≈ 4650 µM) | –
6 | CCOC(=O)[C@@H](N)CC(=O)OCC(=O)O[C@@H](C(=O)O[C@H]1C[C@@]2(O)[C@@H](OC(=O)c3ccccc3)[C@@H]3[C@]4(OC(C)=O)CO[C@@H]4C[C@H](O)[C@@]3(C)C(=O)[C@H](O)C(=C1C)C2(C)C)[C@@H](NC(=O)OC(C)(C)C)c1ccc(F)cc1F [Example 52] | 1000 (≈ 957 µM) | –
7 | CCOC(=O)[C@@H](N)CC(=O)OCC(=O)O[C@@H](C(=O)O[C@H]1C[C@@]2(O)[C@@H](OC(=O)c3ccccc3)[C@@H]3[C@]4(OC(C)=O)CO[C@@H]4C[C@H](O)[C@@]3(C)C(=O)[C@H](O)C(=C1C)C2(C)C)[C@@H](NC(=O)OC(C)(C)C)c1ccccc1 [Example 32, 4α-acetoxy-13α-{(2R,3S)-3-tert-butoxycarbonylamino-2-[((3S)-3-amino-3-ethoxycarbonylpropionyloxy)acetoxy]-3-phenylpropionyloxy}-2α-benzoyloxy-5β,20-epoxy-1β,7β,10β-trihydroxytax-11-en-9-one.methanesulfonate] | 5000 | death (BDF1 mice): no case of death was observed; solubility [1, 4]: 5000 µg/mL
8 | CC(=O)O[C@@]12CO[C@@H]1C[C@H](O)[C@@]1(C)C(=O)[C@H](O)C3=C(C)[C@@H](OC(=O)[C@H](OC(=O)COC(=O)CNC(=O)CN)[C@@H](NC(=O)OC(C)(C)C)c4ccccc4)C[C@@](O)([C@@H](OC(=O)c4ccccc4)[C@H]21)C3(C)C [Example 34] | 10000 (≈ 10200 µM) | –
9 | CC(=O)O[C@@]12CO[C@@H]1C[C@H](O)[C@@]1(C)C(=O)[C@H](O)C3=C(C)[C@@H](OC(=O)[C@H](O)[C@@H](NC(=O)OC(C)(C)C)c4ccccc4)C[C@@](O)([C@@H](OC(=O)c4ccccc4)[C@H]21)C3(C)C [4α-acetoxy-2α-benzoyloxy-5β,20-epoxy-1β,7β,10β-trihydroxy-13α-[(2R,3S)-3-phenyl-3-(t-butoxycarbonylamino)-2-hydroxypropionyloxy]-tax-11-en-9-one] | – | antitumor activities [2]: excellent antitumor activities
10 | CC(=O)O[C@@]12CO[C@@H]1C[C@H](O)[C@@]1(C)C(=O)[C@H](O)C3=C(C)[C@@H](OC(=O)[C@H](OC(=O)COC(=O)CCN)[C@@H](NC(=O)c4ccccc4)c4ccccc4)C[C@@](O)([C@@H](OC(=O)c4ccccc4)[C@H]21)C3(C)C [Example 38] | 1000 (≈ 1060 µM) | –
11 | CCOC(=O)[C@@H](N)CC(=O)OCC(=O)O[C@@H](C(=O)O[C@H]1C[C@@]2(O)[C@@H](OC(=O)c3ccccc3)[C@@H]3[C@]4(OC(C)=O)CO[C@@H]4C[C@H](O)[C@@]3(C)C(=O)[C@H](O)C(=C1C)C2(C)C)[C@@H](NC(=O)c1cccs1)c1ccccc1 [Example 41] | 700 (≈ 687 µM) | –
12 | CCOC(=O)[C@@H](N)CC(=O)OCC(=O)O[C@@H](C(=O)O[C@H]1C[C@@]2(O)[C@@H](OC(=O)c3ccccc3)[C@@H]3[C@]4(OC(C)=O)CO[C@@H]4C[C@H](O)[C@@]3(C)C(=O)[C@H](O)C(=C1C)C2(C)C)[C@@H](NC(=O)OCCOC)c1ccccc1 [Example 47] | > 10000 | –
13 | CCOC(=O)[C@@H](N)CC(=O)OCC(=O)O[C@@H](C(=O)O[C@H]1C[C@@]2(O)[C@@H](OC(=O)c3ccccc3)[C@@H]3[C@]4(OC(C)=O)CO[C@@H]4C[C@H](O)[C@@]3(C)C(=O)[C@H](O)C(=C1C)C2(C)C)[C@@H](NC(=O)c1ccco1)c1ccccc1 [Example 40] | 6000 (≈ 5980 µM) | –
14 | CC(=O)O[C@@]12CO[C@@H]1C[C@H](O)[C@@]1(C)C(=O)[C@H](O)C3=C(C)[C@@H](OC(=O)[C@H](OC(=O)COC(=O)[C@H](C)N)[C@@H](NC(=O)OC(C)(C)C)c4ccccc4)C[C@@](O)([C@@H](OC(=O)c4ccccc4)[C@H]21)C3(C)C [Example 36] | 2000 (≈ 2130 µM) | –
15 | CCOC(=O)[C@@H](N)CC(=O)OCCCCC(=O)O[C@@H](C(=O)O[C@H]1C[C@@]2(O)[C@@H](OC(=O)c3ccccc3)[C@@H]3[C@]4(OC(C)=O)CO[C@@H]4C[C@H](O)[C@@]3(C)C(=O)[C@H](O)C(=C1C)C2(C)C)[C@@H](NC(=O)OC(C)(C)C)c1ccccc1 [Example 37] | 1000 (≈ 951 µM) | –
16 | CCOC(=O)[C@@H](N)CC(=O)OCC(=O)O[C@@H](C(=O)O[C@H]1C[C@@]2(O)[C@@H](OC(=O)c3ccccc3)[C@@H]3[C@]4(OC(C)=O)CO[C@@H]4C[C@H](O)[C@@]3(C)C(=O)[C@H](O)C(=C1C)C2(C)C)[C@@H](NC(=O)OCC(F)(F)F)c1ccccc1 [Example 46] | 5000 (≈ 4830 µM) | –
17 | CCOC(=O)[C@@H](N)CC(=O)OCC(=O)O[C@@H](C(=O)O[C@H]1C[C@@]2(O)[C@@H](OC(=O)c3ccccc3)[C@@H]3[C@]4(OC(C)=O)CO[C@@H]4C[C@H](O)[C@@]3(C)C(=O)[C@H](O)C(=C1C)C2(C)C)[C@@H](NC(=O)OC(C)(C)C)c1ccc(OC)cc1 [Example 56] | 15000 (≈ 14400 µM) | –
18 | CCOC(=O)[C@@H](N)CC(=O)OCC(=O)O[C@@H](C(=O)O[C@H]1C[C@@]2(O)[C@@H](OC(=O)c3ccccc3)[C@@H]3[C@]4(OC(C)=O)CO[C@@H]4C[C@H](O)[C@@]3(C)C(=O)[C@H](O)C(=C1C)C2(C)C)[C@@H](NC(=O)OCC1C(C)(C)C1(F)F)c1ccccc1 (some centres unmarked) [Example 45] | 600 (≈ 560 µM) | –
19 | CCOC(=O)[C@@H](N)CC(=O)OCC(=O)O[C@@H](C(=O)O[C@H]1C[C@@]2(O)[C@@H](OC(=O)c3ccccc3)[C@@H]3[C@]4(OC(C)=O)CO[C@@H]4C[C@H](O)[C@@]3(C)C(=O)[C@H](O)C(=C1C)C2(C)C)[C@@H](NC(=O)OCC1CCC1)c1ccccc1 [Example 48] | 1000 (≈ 979 µM) | –
20 | CCOC(=O)[C@@H](N)CC(=O)OCC(=O)O[C@@H](C(=O)O[C@H]1C[C@@]2(O)[C@@H](OC(=O)c3ccccc3)[C@@H]3[C@]4(OC(C)=O)CO[C@@H]4C[C@H](O)[C@@]3(C)C(=O)[C@H](O)C(=C1C)C2(C)C)[C@@H](NC(=O)c1cc(OC)ccc1OC)c1ccccc1 [Example 43] | 500 (≈ 466 µM) | –
21 | COCCOC(=O)[C@@H](N)CC(=O)OCC(=O)O[C@@H](C(=O)O[C@H]1C[C@@]2(O)[C@@H](OC(=O)c3ccccc3)[C@@H]3[C@]4(OC(C)=O)CO[C@@H]4C[C@H](O)[C@@]3(C)C(=O)[C@H](O)C(=C1C)C2(C)C)[C@@H](NC(=O)OC(C)(C)C)c1ccccc1 [Example 35, 4α-acetoxy-13α-{(2R,3S)-3-tert-butoxycarbonylamino-2-[((3S)-3-amino-3-(2-methoxyethoxycarbonyl)propionyloxy)acetoxy]-3-phenylpropionyloxy}-2α-benzoyloxy-5β,20-epoxy-1β,7β,10β-trihydroxytax-11-en-9-one.methanesulfonate] | 10000 | death (BDF1 mice): no case of death was observed; solubility [1, 4]: 10000 µg/mL
22 | CC(=O)O[C@H]1C(=O)[C@@]2(C)[C@H]([C@H](OC(=O)c3ccccc3)[C@]3(O)C[C@H](OC(=O)[C@H](O)[C@@H](NC(=O)c4ccccc4)c4ccccc4)C(C)=C1C3(C)C)[C@]1(OC(C)=O)CO[C@@H]1C[C@@H]2O [taxol, 4α,10β-diacetoxy-2α-benzoyloxy-5β,20-epoxy-1β,7β-dihydroxy-13α-[(2R,3S)-3-phenyl-3-benzoylamino-2-hydroxypropionyloxy]-tax-11-en-9-one] | – | anti-tumor activity (various kinds of cancers): excellent anti-tumor activity; antitumor activities [2]: excellent antitumor activities; water-solubility [3]: ≤ 4 µg/mL
23 | CCOC(=O)[C@@H](N)CC(=O)OCC(=O)O[C@@H](C(=O)O[C@H]1C[C@@]2(O)[C@@H](OC(=O)c3ccccc3)[C@@H]3[C@]4(OC(C)=O)CO[C@@H]4C[C@H](O)[C@@]3(C)C(=O)[C@H](OC(C)=O)C(=C1C)C2(C)C)[C@@H](NC(=O)c1ccccc1)c1ccccc1 [Example 59, 4α,10β-diacetoxy-13α-{(2R,3S)-3-benzoylamino-2-[((3S)-3-amino-3-ethoxycarbonylpropionyloxy)acetoxy]-3-phenylpropionyloxy}-2α-benzoyloxy-5β,20-epoxy-1β,7β-dihydroxytax-l 1-en-9-one.methanesulfonate] | 300 | –
